System: rabbit aorta rings
Experiment: Vasorelaxant effect in vitro (phenylephrine-contracted rabbit aortic rings)
Conditions: Oryctolagus cuniculus; concentration reducing height of phenylephrine-induced contraction of rabbit aorta rings by 50%; 0.1% DMSO, 37° C.
Procedure: Rabbits are stunned by a blow to the back of the neck and are exsanguinated. The aorta is removed, freed of adherent tissue, divided into rings 1.5 mm wide and put singly under tension in 5 ml organ baths containing carbogen-gassed Krebs-Henseleit solution at 37° C. with the following composition (mM): NaCl: 119; KCl: 4.8; CaCl2×2H2O: 1; MgSO4×7H2O: 1.4; KH2PO4: 1.2; NaHCO3: 25; glucose: 10. The force of contraction is detected with Statham UC2 cells, amplified and digitized via A/D converters (DAS-1802 HC, Keithley Instruments Munich) and recorded in parallel on chart recorders. A contraction is generated by adding phenylephrine to the bath cumulatively in increasing concentration. After several control cycles, the substance to be investigated is investigated in each further run in increasing dosage in each case, and the height of the contraction is compared with the height of the contraction reached in the last preceding run. The concentration necessary to reduce the height of the control value by 50% (IC50) is calculated from this. The standard application volume is 5 μl, and the DMSO content in the bath solution corresponds to 0.1%.

IC50 | SMILES
0.35 µM | Nc1nc(-c2nn(Cc3ccccc3F)c3ncccc23)nc(N)c1N1CCCS1(=O)=O [Example 3, 5-(1,1-Dioxido-2-isothiazolidinyl)-2-[1-(2-fluorobenzyl)-1H-pyrazolo[3,4-b]pyridin-3-yl]-4,6-pyrimidineamine]
0.29 µM | Nc1nc(-c2nn(Cc3ccccc3F)c3ncccc23)nc(Cl)c1N1CCCS1(=O)=O [Example 1, 6-Chloro-5-(1,1-dioxido-2-isothiazolidinyl)-2-[1-(2-fluorobenzyl)-1H-pyrazolo[3,4-b]pyridin-3-yl]-4-pyrimidinediamine]

— US7115599B2, “Sulfonamide-substituted pyrazolopyridine compounds” (Bayer Aktiengesellschaft, priority 2000, dated 2006)
